The subject of experiment [1] is HeLa (cervical cancer cell line). In words: MTT cell viability assay, HeLa. In kind it is cell-based. The following applies: Homo sapiens, 48 h, read-out: Antiproliferative Activity IC50 ± SEM, HeLa. The method, then:
(§1) The tested cells were obtained from Shanghai Institute of Biochemistry and Cell Biology of the Chinese Academy of Sciences (Shanghai, China). HeLa and Hep G2 cell lines were cultured in Dulbecco’s modified Eagle’s medium (DMEM; gibco, Life Technologies, Carlsbad, CA, USA) supplemented with 10% fetal bovine serum (FBS; Biological Industries), 100 U/mL penicillin-streptomycin (PS; gibco, Life Technologies, Carlsbad, CA, USA). MCF-7 and A549 cell lines were maintained in RPMI-1640 media (gibco, Life Technologies, Carlsbad, CA, USA) supplemented with 10% FBS and 100 U/mL PS. FaDu cell lines were cultured in minimum essential medium (MEM; Gibco, Life Technologies, Carlsbad, CA, USA) supplemented with 10% FBS and 100 U/mL PS. MCF 10A cell lines were maintained in Mammary MEGM kit (Lonza/Clonetics) supplemented with 100 ng/mL cholera toxin (Sigma, Shanghai, China). Cell lines were grown at 37 °C in a humidified atmosphere of 5% CO2.
(§2) The growth-inhibitory effects against HeLa, Hep G2, MCF-7, FaDu, and A549 cancer cells and normal cell lines MCF 10A were determined by MTT assay. […] Cells were seeded in 96 well plates at a density of 1 × 10^4 cells per well and incubated for 24 h at 37 °C in a humidified atmosphere of 5% CO2. The cells were then incubated with various concentrations of drugs for 48 h in a 5% CO2 incubator at 37 °C. After treatment with 1 mg/mL 3-(4,5-dimethylthiazol-2-yl)-2,5-diphenyltetrazolium bromide (MTT) solution for 4 h, the formazan crystals were dissolved in 100 µL DMSO in each well. Plates were read on a microplate reader (Thermo Varioskan Flash 3001) at 490 nm. The experiment was performed in triplicate. The inhibitory concentration at 50% (IC50) was calculated based on concentration-inhibition relationships via regression using SPSS software (Version 17.0).

The test system of experiment [2] is MCF 10A (normal mammary epithelial cell). In words: MTT cell viability assay, MCF 10A. Format: cell-based. As to conditions: Homo sapiens, 48 h, normal cells, read-out: Antiproliferative Activity IC50 ± SEM, MCF 10A.
In experiment [3] the test system is MCF-7 (breast cancer cell line). The experiment is described as follows: MTT cell viability assay, MCF-7. In kind it is cell-based. The following applies: Homo sapiens, MCF7, 48 h, read-out: Antiproliferative Activity IC50 ± SEM, MCF-7. The method, then:
as §1, §2

Experiment [4] has as its system A549 (epithelial cancer cell line). The experiment is described as follows: MTT cell viability assay, A549. In kind it is cell-based. The following applies: Homo sapiens, 48 h, read-out: Antiproliferative Activity IC50 ± SEM, A549. The method, then: as §1, §2
For experiment [5], the system named is Hep G2 (hepatocarcinoma cell line). In words: MTT cell viability assay, Hep G2. In kind it is cell-based. The following applies: Homo sapiens, HepG2, 48 h, read-out: Antiproliferative Activity IC50 ± SEM, Hep G2. The method, then:
as §1, §2

The subject of experiment [6] is FaDu (head and neck squamous carcinoma cell line). In words: MTT cell viability assay, FaDu. In kind it is cell-based, human. The method, then:
as §1, §2

[7] abbreviates: Homo sapiens, FaDu, 48 h, MTT, 48 h; read-out: Antiproliferative Activity IC50 ± SEM, FaDu.
Setting [8] is: SI = IC50 (MCF 10A)/IC50 (FaDu).
The mark [9] stands for this setting: MTT, 48 h; read-out: Antiproliferative Activity IC50 ± SEM, FaDu.

Like-named read-outs stand apart in the source and are kept apart here.

On to `Nc1ccc(C(=O)NCCCCCCCCCCNC(=O)c2ccc(N)cc2)cc1` [Compound 31e, N,N′-(Decane-1,10-Diyl)Bis(4-Aminobenzamide)], for which the 50% inhibitory concentration (IC50) in experiment [1] was > 20 µM; in experiment [2] it was > 20 µM; in experiment [3], > 20 µM; in experiment [4], > 20 µM; in experiment [5], > 20 µM; in experiment [6] (setting [7]), 5590 ± 628 nM. For the same compound, the “SI: selectivity index” value in experiment [6] (setting [8]) is on record as >3.58.

As to `O=C(NCCCCCCCCCCNC(=O)c1ccc2ccccc2c1)c1ccc2ccccc2c1` [Compound 12e, N,N′-(Decane-1,10-Diyl)Bis(2-Naphthamide)], the IC50 in experiment [1] was > 100 µM; in experiment [2], > 100 µM; in experiment [3], > 100 µM; in experiment [4], 8.77 ± 0.47 µM; in experiment [5] it was > 100 µM; in experiment [6] (setting [7]), 1330 ± 70 nM. In addition, in experiment [6] (setting [8]), the “SI: selectivity index” value was >75.19.

Take `Cc1nc(C)c(CN(CCCCCCCCN(Cc2nc(C)c(C)nc2C)Cc2nc(C)c(C)nc2C)Cc2nc(C)c(C)nc2C)nc1C` [Compound 6e, N^1,N^1,N^8,N^8-Tetrakis((3,5,6-Trimethylpyrazin-2-yl)Methyl)Octane-1,8-Diamine]: the IC50 in experiment [1] was 62.7 ± 4.19 µM; in experiment [2], 85.4 ± 2.28 µM; in experiment [3], 66.36 ± 0.05 µM; in experiment [4], > 100 µM; in experiment [5], 50.8 ± 1.35 µM; in experiment [6] (setting [7]), 49500 ± 1610 nM. In experiment [6] (setting [8]), the “SI: selectivity index” value is given as 1.73.

For `O=C(NCCCCCCCCCCNC(=O)c1ccccc1)c1ccccc1` [Compound 11e, N,N′-(Decane-1,10-Diyl)Dibenzamide], the IC50 is > 100 µM in experiment [1]; 80.5 ± 7.6 µM in experiment [2]; > 100 µM in experiment [3]; 64.3 ± 3.46 µM in experiment [4]; > 100 µM in experiment [5]; < 1000 nM in experiment [6] (setting [7]). Moreover, the concentration for half-maximal inhibition (IC50) in experiment [6] (setting [9]) came out at 500 ± 60 nM. For the same compound, in experiment [6] (setting [8]), the “SI: selectivity index” value worked out at 161.08.

`Cc1nc(C)c(C(=O)NCCCCCCCCNC(=O)c2nc(C)c(C)nc2C)nc1C` [Compound 8d, N,N′-(Octane-1,8-Diyl)Bis(3,5,6-Trimethylpyrazine-2-Carboxamide)]: the concentration for half-maximal inhibition (IC50) is 3.31 ± 0.14 µM in experiment [1]; 2.69 ± 0.46 µM in experiment [2]; 0.48 ± 0.003 µM in experiment [3]; 6.35 ± 0.05 µM in experiment [4]; > 20 µM in experiment [5]; 110 ± 30 nM in experiment [6] (setting [7]). Moreover, the “SI: selectivity index” value in experiment [6] (setting [8]) is listed as 24.45.

In the case of `COc1cccc2c1C(=O)c1c(O)c3c(c(O)c1C2=O)C[C@@](O)(C(=O)CO)C[C@@H]3O[C@H]1C[C@H](N)[C@H](O)[C@H](C)O1` [DOX, doxorubicin, reference compound], the IC50 is 11.4 ± 0.48 µM in experiment [1]; 0.55 ± 0.03 µM in experiment [2]; 6 ± 0.07 µM in experiment [3]; > 100 µM in experiment [4]; 28 ± 1.09 µM in experiment [5]; 1270 ± 130 nM in experiment [6] (Homo sapiens, FaDu; MTT, 48 h; read-out: Antiproliferative Activity IC50 ± SEM, FaDu).

Consider `O=C(NCCCCCCCCCCNC(=O)c1cc2ccccc2o1)c1cc2ccccc2o1` [Compound 21e, N,N′-(Decane-1,10-Diyl)Bis(Benzofuran-2-Carboxamide)], for which the IC50 is > 20 µM in experiment [1]; > 20 µM in experiment [2]; > 20 µM in experiment [3]; > 20 µM in experiment [4]; > 20 µM in experiment [5]; 697 nM in experiment [6] (Homo sapiens, FaDu, 48 h, MTT, 48 h, values in nM; read-out: IC50 in FaDu cells). Further, the results for the half-inhibitory concentration (IC50) in experiment [6] (setting [7]) and in experiment [6] (setting [9]) were < 1000 nM and 665 ± 28 nM, respectively. Also, the “SI: selectivity index” value in experiment [6] (setting [8]) is >30.08.

In the case of `Cc1nc(C)c(C(=O)NCCCNC(=O)c2nc(C)c(C)nc2C)nc1C` [Compound 8a, N,N′-(Propane-1,3-Diyl)Bis(3,5,6-Trimethylpyrazine-2-Carboxamide)], the concentration for half-maximal inhibition (IC50) was > 100 µM in experiment [1]; > 100 µM in experiment [2]; > 100 µM in experiment [3]; > 100 µM in experiment [4]; > 100 µM in experiment [5]; > 100000 nM in experiment [6] (setting [7]).

In the case of `O=C(/C=C/c1ccccc1)NCCOCCOCCNC(=O)/C=C/c1ccccc1` [Compound 9j, (2E,2′E)-N,N′-((Ethane-1,2-Diylbis(Oxy))Bis(Ethane-2,1-Diyl))Bis(3-Phenylacrylamide)], the IC50 in experiment [1] is > 20 µM; in experiment [2] it was > 20 µM; in experiment [3], > 20 µM; in experiment [4] it was > 20 µM; in experiment [5] it was > 20 µM; in experiment [6] (setting [7]), > 20000 nM.

`COc1cc(C(=O)NCCCCCCCCCCNC(=O)c2cc(OC)c(OC)c(OC)c2)cc(OC)c1OC` [Compound 34e, N,N′-(Decane-1,10-Diyl)Bis(3,4,5-Trimethoxybenzamide)]: the IC50 in experiment [1] is > 20 µM; in experiment [2] it was > 20 µM; in experiment [3] it was > 20 µM; in experiment [4] it was > 20 µM; in experiment [5], > 20 µM; in experiment [6] (setting [7]), 5850 ± 408 nM. In experiment [6] (setting [8]), the “SI: selectivity index” value is given as >3.42.

Regarding `O=C(/C=C/c1ccccc1)NCCCCCCCCCCNC(=O)/C=C/c1ccccc1` [Compound 9e, (2E,2′E)-N,N′-(Decane-1,10-Diyl)Bis(3-Phenylacrylamide)], the IC50 in experiment [1] was > 100 µM; in experiment [2], > 100 µM; in experiment [3] it was > 100 µM; in experiment [4] it was 11.3 ± 0.81 µM; in experiment [5], > 100 µM. In addition, in experiment [6] (setting [8]), the “SI: selectivity index” value is >1851.85.

Take `O=C(/C=C/c1ccccc1)NCCCCCCCCNC(=O)/C=C/c1ccccc1` [Compound 9d, (2E,2′E)-N,N′-(Octane-1,8-Diyl)Bis(3-Phenylacrylamide)]: the IC50 was > 20 µM in experiment [1]; > 20 µM in experiment [2]; > 20 µM in experiment [3]; > 20 µM in experiment [4]; > 20 µM in experiment [5]; 1050 ± 91 nM in experiment [6] (setting [7]). The “SI: selectivity index” value in experiment [6] (setting [8]) was >18.98.

Regarding `Nc1cccc(C(=O)NCCCCCCCCCCNC(=O)c2cccc(N)c2)c1` [Compound 32e, N,N′-(Decane-1,10-Diyl)bis(3-Aminobenzamide)], the IC50 in experiment [1] is > 20 µM; in experiment [2], > 20 µM; in experiment [3], > 20 µM; in experiment [4], > 20 µM; in experiment [5], > 20 µM; in experiment [6] (setting [7]), > 20000 nM.

As for `O=C(NCCCCCCCCCCNC(=O)c1cccnc1)c1cccnc1` [Compound 10e, N,N′-(Decane-1,10-Diyl)Dinicotinamide], the IC50 was > 100 µM in experiment [1]; 38.6 ± 2.48 µM in experiment [2]; > 100 µM in experiment [3]; 2.94 ± 0.25 µM in experiment [4]; > 100 µM in experiment [5]. For the same compound, the “SI: selectivity index” value in experiment [6] (setting [8]) is reported as 154.40.

For `O=C(NCCCCCCCCCCNC(=O)c1ccncc1)c1ccncc1` [Compound 13e, N,N′-(Decane-1,10-Diyl)Diisonicotinamide], the concentration for half-maximal inhibition (IC50) in experiment [1] was > 100 µM; in experiment [2], > 100 µM; in experiment [3] it was > 100 µM; in experiment [4], > 100 µM; in experiment [5], > 100 µM; in experiment [6] (setting [7]) it was 48300 ± 3170 nM. Besides, the “SI: selectivity index” value in experiment [6] (setting [8]) is >2.07.

Turning to `O=C(NCCCCCCCCCCNC(=O)c1ccccn1)c1ccccn1` [Compound 15e, N,N′-(Decane-1,10-Diyl)Dipicolinamide], the concentration for half-maximal inhibition (IC50) is 37.7 ± 4.32 µM in experiment [1]; 54.6 ± 5.92 µM in experiment [2]; 21.5 ± 1.47 µM in experiment [3]; 23.08 ± 0.12 µM in experiment [4]; 26.3 ± 5.36 µM in experiment [5]; 8850 ± 450 nM in experiment [6] (setting [7]). The “SI: selectivity index” value in experiment [6] (setting [8]) is recorded as 6.18.
